Data on nine molecules can be found in ChEMBL document CHEMBL1671755, “Prevalence, mutation patterns, and effects on protease inhibitor susceptibility of the L76V mutation in HIV-1 protease” (2010).

Molecules are shown by their SMILES.

What all share (assay type): functional
Experiment [1] concerns Human immunodeficiency virus 1. The experiment is described as follows: Antiviral activity against Human immunodeficiency virus 1 harboring protease inhibitor resistance-associated mutations assessed as fold change in drug susceptibility relative to wild type.
Experiment [2] concerns Human immunodeficiency virus 1. The experiment is described as follows: Antiviral activity against Human immunodeficiency virus 1 harboring protease inhibitor resistance-associated mutations and protease L76V mutation in viral protease assessed as fold change in drug susceptibility relative to wild type.
The subject of experiment [3] is Human immunodeficiency virus 1. Nature of the experiment: Antiviral activity against Human immunodeficiency virus 1 harboring M46I, M46L, I54V, and V82A mutations in viral protease assessed as fold change in drug susceptibility relative to wild type.
Experiment [4] relates to Human immunodeficiency virus 1. Nature of the experiment: Antiviral activity against Human immunodeficiency virus 1 harboring M46I, M46L, I54V, V82A and L76V mutations in viral protease assessed as fold change in drug susceptibility relative to wild type.
Experiment [5] deals with Human immunodeficiency virus 1. Nature of the experiment: Antiviral activity against Human immunodeficiency virus 1 harboring M46I mutation in viral protease assessed as fold change in drug susceptibility relative to wild type.
The subject of experiment [6] is Human immunodeficiency virus 1. Nature of the experiment: Antiviral activity against Human immunodeficiency virus 1 harboring M46I and L76V mutations in viral protease assessed as fold change in drug susceptibility relative to wild type.

As to `CC(C)CN(C[C@@H](O)[C@H](Cc1ccccc1)NC(=O)O[C@H]1CCOC1)S(=O)(=O)c1ccc(N)cc1` [AMPRENAVIR], the “fold change (FC)” value was determined as 21.1 in experiment [1]; 70.9 in experiment [2]; 3.7 in experiment [3]; 19.3 in experiment [4]; 1.5 in experiment [5]; 6.7 in experiment [6].

As to `COC(=O)N[C@H](C(=O)N[C@@H](Cc1ccccc1)[C@@H](O)CN(Cc1ccc(-c2ccccn2)cc1)NC(=O)[C@@H](NC(=O)OC)C(C)(C)C)C(C)(C)C` [ATAZANAVIR], the “fold change (FC)” value in experiment [1] is given as 75.2; in experiment [2] it was 11.3; in experiment [3], 5.7; in experiment [4], 2.1; in experiment [5], 4.3; in experiment [6], 0.9.

As for `CC(C)CN(C[C@@H](O)[C@H](Cc1ccccc1)NC(=O)O[C@H]1CO[C@H]2OCC[C@H]21)S(=O)(=O)c1ccc(N)cc1` [DARUNAVIR], the “fold change (FC)” value in experiment [1] was 8.5; in experiment [2], 37.4; in experiment [3] it was 1.1; in experiment [4] it was 4.2; in experiment [5], 0.9; in experiment [6] it was 2.8.

Turning to `CC(C)(C)NC(=O)[C@@H]1CN(Cc2cccnc2)CCN1C[C@@H](O)C[C@@H](Cc1ccccc1)C(=O)N[C@H]1c2ccccc2C[C@H]1O.O` [INDINAVIR], the “fold change (FC)” value was determined as 40.1 in experiment [1]; 60.1 in experiment [2]; 9.7 in experiment [3]; 37.4 in experiment [4]; 3.4 in experiment [5]; 8.6 in experiment [6].

Take `Cc1cccc(C)c1OCC(=O)N[C@@H](Cc1ccccc1)[C@@H](O)C[C@H](Cc1ccccc1)NC(=O)[C@H](C(C)C)N1CCCNC1=O` [LOPINAVIR]: the “fold change (FC)” value in experiment [1] amounted to 46.1; in experiment [2], 174.2; in experiment [3], 28; in experiment [4], 163.1; in experiment [5], 1.6; in experiment [6], 9.9.

`Cc1c(O)cccc1C(=O)N[C@@H](CSc1ccccc1)[C@H](O)CN1C[C@H]2CCCC[C@H]2C[C@H]1C(=O)NC(C)(C)C` [NELFINAVIR]: the “fold change (FC)” value is recorded as 78.3 in experiment [1]; 36.1 in experiment [2]; 13.9 in experiment [3]; 14.8 in experiment [4]; 7.9 in experiment [5]; 2.5 in experiment [6].

Take `CC(C)c1nc(CN(C)C(=O)N[C@H](C(=O)N[C@@H](Cc2ccccc2)C[C@H](O)[C@H](Cc2ccccc2)NC(=O)OCc2cncs2)C(C)C)cs1` [RITONAVIR]: the “fold change (FC)” value in experiment [1] came to 129.7; in experiment [2], 113.2; in experiment [3], 37.6; in experiment [4], 63.6; in experiment [5], 2.2; in experiment [6], 2.7.

Consider `CC(C)(C)NC(=O)[C@@H]1C[C@@H]2CCCC[C@@H]2CN1C[C@@H](O)[C@H](Cc1ccccc1)NC(=O)[C@H](CC(N)=O)NC(=O)c1ccc2ccccc2n1` [SAQUINAVIR], for which the “fold change (FC)” value in experiment [1] is listed as 197.4; in experiment [2], 43.5; in experiment [3] it was 2.8; in experiment [4], 3.2; in experiment [5], 1.2; in experiment [6] it was 0.7.

`CCC[C@@]1(CCc2ccccc2)CC(O)=C([C@H](CC)c2cccc(NS(=O)(=O)c3ccc(C(F)(F)F)cn3)c2)C(=O)O1` [TIPRANAVIR]: the “fold change (FC)” value was 6.7 in experiment [1]; 3.6 in experiment [2]; 1.7 in experiment [3]; 1.2 in experiment [4]; 1.2 in experiment [5]; 0.8 in experiment [6].
